Source: ChEMBL document CHEMBL4000206, “An efficient anticoagulant candidate: Characterization, synthesis and in vivo study of a fondaparinux analogue Rrt1.17” (Eur J Med Chem, 2017)
Calls of active or inactive are those of the source. The calls are words filed in the database; no cut-off is given here.

Tests used:
Coagulation factor X [1] = biological target: T1, Coagulation factor X (Homo sapiens, UniProt P00742); assay: Inhibition of factor 10a (unknown origin) using S-2765 as substrate preincubated with AT-3 followed by factor 10a addition for 60 secs and subsequent addition of substrate for 60 secs measured after 4 mins
T1 sequence (P00742 41-179 limits assumed): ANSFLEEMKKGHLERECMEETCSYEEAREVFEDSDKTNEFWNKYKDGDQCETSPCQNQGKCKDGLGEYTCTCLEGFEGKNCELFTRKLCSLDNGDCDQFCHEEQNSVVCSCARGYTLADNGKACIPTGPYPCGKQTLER
T1 sequence (P00742 235-488 limits assumed): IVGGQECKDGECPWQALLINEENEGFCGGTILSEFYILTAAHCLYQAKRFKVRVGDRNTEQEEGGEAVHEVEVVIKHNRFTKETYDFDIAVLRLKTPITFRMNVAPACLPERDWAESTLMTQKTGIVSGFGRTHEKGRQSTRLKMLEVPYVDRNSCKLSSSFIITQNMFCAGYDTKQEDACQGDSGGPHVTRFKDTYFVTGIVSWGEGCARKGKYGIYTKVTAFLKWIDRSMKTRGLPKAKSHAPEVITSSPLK

Coagulation factor X [2] = biological target: T1, Coagulation factor X; assay: Inhibition of factor 10a (unknown origin) using S-2765 as substrate assessed as compound potency preincubated with AT-3 followed by factor 10a addition for 60 secs and subsequent addition of substrate for 60 secs measured after 4 mins
Rattus norvegicus [3] = assay: Antithrombotic activity in Wistar rat venous thrombosis model assessed as reduction in weight of vein thrombus at 300 IU/kg, sc administered 1 hr prior to induction of thrombosis measured after 30 mins; format: functional, organism-based
Rattus norvegicus [4] = assay: Antithrombotic activity in Wistar rat venous thrombosis model assessed as reduction in weight of vein thrombus at 100 to 500 IU/kg, sc administered 1 hr prior to induction of thrombosis measured after 30 mins; format: functional, organism-based

SMILES	IC50 (Coagulation factor X [1])	INH (Coagulation factor X [2])	Activity (Rattus norvegicus [3])	Activity (Rattus norvegicus [4])
CO[C@H]1O[C@H](COS(=O)(=O)O)[C@@H](O[C@@H]2O[C@@H](C(=O)O)[C@@H](O[C@@H]3O[C@H](COS(=O)(=O)O)[C@@H](O[C@@H]4O[C@H](C(=O)O)[C@@H](O[C@H]5O[C@H](COS(=O)(=O)O)[C@@H](O)[C@H](O)[C@H]5NS(=O)(=O)O)[C@H](O)[C@H]4O)[C@H](OS(=O)(=O)O)[C@H]3NS(=O)(=O)O)[C@H](O)[C@H]2OS(=O)(=O)O)[C@H](O)[C@H]1NS(=O)(=O)O	0.978 nM	1170 IU/mg	Active	
CC.COC1O[C@H](COS(=O)(=O)O)[C@@H](O[C@@H]2O[C@@H](C(=O)O)[C@@H](O[C@@H]3O[C@H](COS(=O)(=O)O)[C@@H](O[C@@H]4O[C@H](C(=O)O)[C@@H](O[C@H]5O[C@H](COS(=O)(=O)O)[C@@H](O)[C@H](O)[C@H]5NS(=O)(=O)O)[C@H](O)[C@H]4O)[C@H](OS(=O)(=O)O)[C@H]3NS(=O)(=O)O)[C@H](O)[C@H]2OS(=O)(=O)O)[C@H](O)[C@H]1NS(=O)(=O)O (single isomer, unassigned)	3 nM	719 IU/mg		
CO[C@H]1O[C@H](COS(=O)(=O)O)[C@@H](O[C@@H]2O[C@@H](C(=O)O)[C@@H](O[C@@H]3O[C@H](COS(=O)(=O)O)[C@@H](O[C@@H]4O[C@H](C(=O)O)[C@@H](O[C@H]5O[C@H](COS(=O)(=O)O)[C@@H](O)[C@H](O)[C@H]5NC=O)[C@H](O)[C@H]4O)[C@H](OS(=O)(=O)O)[C@H]3NS(=O)(=O)O)[C@H](O)[C@H]2OS(=O)(=O)O)[C@H](O)[C@H]1NS(=O)(=O)O	1.14 nM	1260 IU/mg		
CO[C@H]1O[C@H](COS(=O)(=O)O)[C@@H](O[C@@H]2O[C@@H](C(=O)O)[C@@H](O[C@@H]3O[C@H](COS(=O)(=O)O)[C@@H](O[C@@H]4O[C@H](C(=O)O)[C@@H](O[C@H]5O[C@H](COS(=O)(=O)O)[C@@H](O)[C@H](O)[C@H]5NS(=O)(=O)O)[C@H](O)[C@H]4O)[C@H](OS(=O)(=O)O)[C@H]3N)[C@H](O)[C@H]2OS(=O)(=O)O)[C@H](O)[C@H]1NS(=O)(=O)O	494 nM	2.15 IU/mg		
CO[C@H]1O[C@H](COS(=O)(=O)O)[C@@H](O[C@@H]2O[C@@H](C(=O)O)[C@@H](O[C@@H]3O[C@H](COS(=O)(=O)O)[C@@H](O[C@@H]4O[C@H](C(=O)O)[C@@H](O[C@H]5O[C@H](COS(=O)(=O)O)[C@@H](O)[C@H](O)[C@H]5N)[C@H](O)[C@H]4O)[C@H](OS(=O)(=O)O)[C@H]3N)[C@H](O)[C@H]2OS(=O)(=O)O)[C@H](O)[C@H]1NS(=O)(=O)O	967 nM	1.32 IU/mg		
CO[C@H]1O[C@H](COS(=O)(=O)O)[C@@H](O[C@@H]2O[C@@H](C(=O)O)[C@@H](O[C@@H]3O[C@H](COS(=O)(=O)O)[C@@H](O[C@@H]4O[C@H](C(=O)O)[C@@H](O[C@H]5O[C@H](COS(=O)(=O)O)[C@@H](O)[C@H](O)[C@H]5NS(=O)(=O)O)[C@H](O)[C@H]4O)[C@H](OS(=O)(=O)O)[C@H]3NS(=O)(=O)O)[C@H](O)[C@H]2OS(=O)(=O)O)[C@H](O)[C@H]1N(C)S(=O)(=O)O	1.65 nM	1140 IU/mg		Active
CO[C@H]1O[C@H](COS(=O)(=O)O)[C@@H](O[C@@H]2O[C@@H](C(=O)O)[C@@H](O[C@@H]3O[C@H](COS(=O)(=O)O)[C@@H](O[C@@H]4O[C@H](C(=O)O)[C@@H](O[C@H]5O[C@H](COS(=O)(=O)O)[C@@H](O)[C@H](O)[C@H]5NS(=O)(=O)O)[C@H](O)[C@H]4O)[C@H](OS(=O)(=O)O)[C@H]3NS(=O)(=O)O)[C@H](OS(=O)(=O)O)[C@H]2OS(=O)(=O)O)[C@H](O)[C@H]1NS(=O)(=O)O	9.25 nM	185 IU/mg		
CO[C@H]1O[C@H](COS(=O)(=O)O)[C@@H](O[C@@H]2O[C@H]3C(=O)N[C@H]4[C@H](O[C@@H]3[C@H](O)[C@H]2OS(=O)(=O)O)O[C@H](COS(=O)(=O)O)[C@@H](O[C@@H]2O[C@H](C(=O)O)[C@@H](O[C@H]3O[C@H](COS(=O)(=O)O)[C@@H](O)[C@H](O)[C@H]3NS(=O)(=O)O)[C@H](O)[C@H]2O)[C@@H]4OS(=O)(=O)O)[C@H](O)[C@H]1NS(=O)(=O)O	19.9 nM	83.5 IU/mg		
CC.O=C(O)[C@H]1O[C@@H](O[C@H]2[C@H](OS(=O)(=O)O)[C@@H](NS(=O)(=O)O)[C@H](O[C@H]3[C@H](O)[C@@H](OS(=O)(=O)O)[C@H](O[C@@H]4[C@H](O)[C@@H](CO)O[C@@H]4CS(=O)(=O)O)O[C@H]3C(=O)O)O[C@@H]2COS(=O)(=O)O)[C@H](O)[C@@H](O)[C@@H]1O[C@H]1O[C@H](COS(=O)(=O)O)[C@@H](O)[C@H](O)[C@H]1NS(=O)(=O)O	20.7 nM			
